Test results as given in patent US20150321985A1, “(HYDROXYSTILBENE COMPOUND)-(SINAPINIC ACID) REACTION PRODUCT HAVING ANTIFEEDING ACTIVITY” (UHA MIKAKUTO CO., LTD., priority 2012, published 2015).

Assays:
[1] = test system: female mice C57BL/6j; assay: Examination of antifeeding activity: test diets freely fed to mice for 42 days; format: in vivo; settings: for Total diet intake during test period: C57BL/6j mice
Experimental: To examine the antifeeding activity of UHA1028, 8-week-old female mice C57BL/6j (manufactured by CLEA Japan, Inc.) were used. […] The mice were freely fed for 42 days. During the feeding period of test diets, the diet intake and the weight were measured twice a week.
A required amount of the UHA1028 was obtained by repeating the formation and isolation described in Example 1.
In Table 2, the amount of each component is represented as g per kg of diet.
The test diets fed to the control groups are, a normal diet, a high-fat diet, and a high-fat diet containing resveratrol but containing no test substance respectively.

[2] = test system: agouti-related peptide (AgRP); settings: reporter assay in cultured cells; cited from earlier work
[3] = test system: NPY; settings: reporter assay in cultured cells; cited from earlier work
[4] = 0.4% test substance in high-fat diet, 42 days

Oc1ccc(C=Cc2cc(O)cc(O)c2)cc1 [Resveratrol, resveratrol, reference compound]
Total diet intake during test period [1, 4]: 106.7 g | antifeeding activity on long-term administration ([1]; administered for a long period of time, as in the examples): very low antifeeding activity | expression of AgRP [2]: suppressed the expression of AgRP and NPY | expression of NPY [3]: suppressed the expression of AgRP and NPY

COc1cc(C(C)c2c(O)cc(/C=C/c3ccc(O)cc3)cc2O)cc(OC)c1O (stereo not drawn) [UHA1028]
change in diet intake (FIG. 2) ([1]; 0.05% UHA1028-containing high-fat diet versus 0.4% resveratrol intake group): significantly reduced as compared with the resveratrol intake group | Total diet intake during test period ([1]; 0.05% test substance in high-fat diet, 42 days): 88.4 g | Total diet intake during test period ([1]; 0.1% test substance in high-fat diet, 42 days): 87.1 g | Total diet intake during test period ([1]; 0.2% test substance in high-fat diet, 42 days): 99.9 g | weight increase (FIG. 3) ([1]; 0.4% UHA1028 in high-fat diet versus 0.4% resveratrol intake group): significantly suppressed as compared with the resveratrol intake group | Total diet intake during test period [1, 4]: 97.5 g | diet intake versus the other groups ([1]; UHA1028 intake groups 0.05-0.4% in high-fat diet, Table 3): significantly lower than those of the other groups | anatomy of the mice at the end of the test (organs) ([1]; four UHA1028 intake groups (0.05-0.4%), 42 days): no contraction or hypertrophy of organs was observed
